One series concerns the target MAP4K5 (Homo sapiens, UniProt Q9Y4K4). Kind of series: ADP-Glo MAP4K5 kinase assay. As to conditions: FIG. 17A. Type of series: biochemical. On the procedure:
(§1) ADP-Glo kinase assay was performed using ADP-Glo™ Kinase Assay (Promega, V6930) according to the manufacture recommended protocol.

Series [1] has as its system esophageal adenocarcinoma (EAC) PDX.
Description: Two EAC PDX models were constructed (EAC47 and EAC36) from patient tumor samples. Mice harboring established tumors (approx. 200 mm^3) were treated with either DAPT (20 mg/kg) or Z271-0326 (25 mg/kg) daily via intraperitoneal injections.
When the tumor size reaches 200 mm^3, the corresponding groups were either treated with vehicle (DMSO) or lead compound by IP injection daily.
For the next series, the system named is OE33 cells. Kind of series: Cell apoptosis assay (Annexin V/PI flow cytometry). Type of series: cell-based, human. As to conditions: day 7 of treatment, FIG. 9A. The method, then: To investigate how Z271-0326 inhibits cell growth in EAC cell lines, the effect of Z271-0326 treatment was evaluated on apoptosis. OE33 was treated either with the GSI DAPT or Z271-0326 every other day, and their effects on apoptosis were analyzed. On day 7 of treatment, cell apoptosis was analyzed using FITC Annexin V/Dead Cell Apoptosis Kit with FIFC annexin V and PI for flow cytometry (Invitrogen, V13242).
On the technique in general: In flow cytometry, cells or beads pass a laser one at a time.

A short description of series [2]: Maximum tolerated dose in efficacy studies. The note with it: mouse, in vivo, ip, 25 mg/kg; 4-week efficacy studies; intraperitoneal.
The subject of series [3] is NACK binding to the Notch transcription complex. Kind of series: CSL-DNA affinity precipitation (CSL-DAP) assay. Type of series: cell-based, mouse. The note with it: Y999F NACK and Q1024E NACK mutants (mouse NACK); FIG. 10D. The method, then: (§2) To determine the specificity of hit-to-lead compounds targeting NACK activity, it was evaluated whether iNACK can block NACK binding to the Notch complex by conducting CSL-DNA affinity precipitation (CSL-DAP) assay. […] In the CSL-DAP assay, 293T cells were co-transfected with N1^ICD, Maml1 and NACK. Transfections were performed using LipoJet transfection reagent (SL100468, SignaGen Laboratories) according to the manufacturer recommended protocol. After two days of transfection, cells were treated with compounds for 2 hours prior collecting the cell lysate. Cell lysates were incubated with DNA streptavidin beads. Proteins that bound to the beads were analyzed by Western blot.
(§3) Western blot was performed as described previously (See Weaver et al., Cancer Research 74, 4741-4751 (2014)). Primary antibodies were α-NACK (1:1,000; against aa209-287 of NACK and affinity purified), α-CSL (1:1,000; generated against full-length CSL and affinity purified), α-Maml1 (1:5,000; Cell Signaling Technology), α-cleaved-Notch1 (1:1,000; Cell Signaling Technology).

Series [4] has as its target T1, NACK binding to the Notch transcription complex (Mus musculus, UniProt Q571I4).
T1 construct: expressed in transfected cells; host or cells: 293T
T1 sequence (Q571I4 1-1373): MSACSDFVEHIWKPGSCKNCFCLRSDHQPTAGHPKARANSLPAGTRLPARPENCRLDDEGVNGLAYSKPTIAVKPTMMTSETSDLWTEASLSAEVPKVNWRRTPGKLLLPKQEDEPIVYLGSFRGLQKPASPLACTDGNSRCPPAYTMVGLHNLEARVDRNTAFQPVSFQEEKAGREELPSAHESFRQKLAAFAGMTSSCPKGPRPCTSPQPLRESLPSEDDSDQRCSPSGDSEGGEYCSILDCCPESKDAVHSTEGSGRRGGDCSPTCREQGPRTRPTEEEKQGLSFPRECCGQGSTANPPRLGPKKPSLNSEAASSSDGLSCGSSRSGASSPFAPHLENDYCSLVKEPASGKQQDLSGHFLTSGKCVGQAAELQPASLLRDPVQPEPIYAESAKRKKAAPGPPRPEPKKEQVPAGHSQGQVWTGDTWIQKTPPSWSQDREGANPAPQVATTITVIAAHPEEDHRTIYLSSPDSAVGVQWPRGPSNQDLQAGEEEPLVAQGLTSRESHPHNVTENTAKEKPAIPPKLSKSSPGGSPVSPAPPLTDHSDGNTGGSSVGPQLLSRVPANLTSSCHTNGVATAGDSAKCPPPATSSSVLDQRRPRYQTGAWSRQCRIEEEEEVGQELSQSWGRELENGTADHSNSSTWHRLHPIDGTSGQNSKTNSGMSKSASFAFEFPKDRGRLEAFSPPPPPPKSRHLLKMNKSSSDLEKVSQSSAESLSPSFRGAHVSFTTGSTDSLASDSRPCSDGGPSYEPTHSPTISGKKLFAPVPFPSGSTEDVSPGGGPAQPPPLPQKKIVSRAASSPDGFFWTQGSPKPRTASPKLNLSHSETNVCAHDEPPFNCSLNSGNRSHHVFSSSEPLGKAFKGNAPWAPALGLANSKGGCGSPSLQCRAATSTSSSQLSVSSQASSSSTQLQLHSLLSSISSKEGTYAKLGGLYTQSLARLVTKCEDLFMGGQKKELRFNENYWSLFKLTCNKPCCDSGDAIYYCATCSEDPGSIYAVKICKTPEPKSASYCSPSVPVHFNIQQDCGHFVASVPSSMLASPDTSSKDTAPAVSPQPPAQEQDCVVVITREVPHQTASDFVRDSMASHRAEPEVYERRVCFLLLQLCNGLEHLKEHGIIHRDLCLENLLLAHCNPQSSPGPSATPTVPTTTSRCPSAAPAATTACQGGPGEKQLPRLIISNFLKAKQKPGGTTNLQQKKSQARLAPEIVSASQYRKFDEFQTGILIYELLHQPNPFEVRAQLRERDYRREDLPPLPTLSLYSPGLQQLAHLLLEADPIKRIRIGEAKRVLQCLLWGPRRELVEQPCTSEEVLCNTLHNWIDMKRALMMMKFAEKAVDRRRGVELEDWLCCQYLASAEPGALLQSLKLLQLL
The series can be described thus: CSL-DNA affinity precipitation (CSL-DAP) assay. The class given is cell-based. On the procedure:
as §2, §3

In the next series the test system is HC11 cells. The series can be described thus: Colony formation assay in HC11 cells. The class given is cell-based, mouse. As to conditions: Notch/NACK independent cell line; FIG. 5B. On the procedure: A cell based colony formation assay was used in these experiments. Normal mouse mammary epithelia HC11 cells have little or no endogenous NACK expression, and NACK knockdown had no effect on the growth of HC11 cells (FIG. 5A, lower panel). […] Knockdown of NACK was confirmed by western blot and qPCR (FIGS. 1D and 1E). […] Therefore, compounds that affect OE33 colony formation but not HC11 were desired. In order to screen the compounds, cells were treated with test compounds every other day.
Colony formation assay was utilized to determine the effect of small molecule inhibitors on cell proliferation. In general, different cell lines (NACK dependent or independent) will be seeded in 6-well plates at a density of 2000 cells per well and allowed to attach overnight. Inhibitor treatment commenced 24 hours post seeding, and the media containing inhibitor was changed every 48 hours thereafter. After 168 hours, colonies were be stained with Crystal Violet (Millipore) and counted.

A further series concerns the target TNIK (Homo sapiens, UniProt Q9UKE5). Kind of series: ADP-Glo TNIK kinase assay. The class given is biochemical. The note with it: FIG. 17C. On the procedure:
as §1
(In ADP-Glo the light output rises with the ADP produced.)

The structures appear in SMILES notation. Entries after “also recorded” stand apart in the source; their conditions may differ.

MAP4K5, sequence (Q9Y4K4 whole entry, species assumed): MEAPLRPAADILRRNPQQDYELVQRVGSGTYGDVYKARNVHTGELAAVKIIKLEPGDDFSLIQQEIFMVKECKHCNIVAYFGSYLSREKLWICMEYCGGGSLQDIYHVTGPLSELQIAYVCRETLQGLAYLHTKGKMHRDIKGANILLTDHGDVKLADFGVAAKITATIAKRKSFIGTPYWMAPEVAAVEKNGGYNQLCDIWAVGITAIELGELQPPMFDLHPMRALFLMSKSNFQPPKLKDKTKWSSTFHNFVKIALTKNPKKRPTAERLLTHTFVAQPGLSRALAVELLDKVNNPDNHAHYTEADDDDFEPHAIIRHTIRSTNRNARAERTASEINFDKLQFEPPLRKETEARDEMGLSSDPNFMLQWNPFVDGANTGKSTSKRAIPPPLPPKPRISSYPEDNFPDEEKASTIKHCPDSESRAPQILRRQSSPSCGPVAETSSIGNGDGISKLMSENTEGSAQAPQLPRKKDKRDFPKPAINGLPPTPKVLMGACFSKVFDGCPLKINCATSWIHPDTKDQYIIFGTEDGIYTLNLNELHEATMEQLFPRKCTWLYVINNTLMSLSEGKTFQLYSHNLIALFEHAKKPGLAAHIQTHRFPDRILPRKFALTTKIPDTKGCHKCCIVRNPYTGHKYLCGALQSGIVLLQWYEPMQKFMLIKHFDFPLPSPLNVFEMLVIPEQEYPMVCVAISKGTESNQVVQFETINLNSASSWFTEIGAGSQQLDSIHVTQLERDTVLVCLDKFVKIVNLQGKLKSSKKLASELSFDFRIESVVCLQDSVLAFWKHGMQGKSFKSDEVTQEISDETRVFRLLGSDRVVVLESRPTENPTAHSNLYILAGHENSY
TNIK, sequence (Q9UKE5 whole entry, species assumed): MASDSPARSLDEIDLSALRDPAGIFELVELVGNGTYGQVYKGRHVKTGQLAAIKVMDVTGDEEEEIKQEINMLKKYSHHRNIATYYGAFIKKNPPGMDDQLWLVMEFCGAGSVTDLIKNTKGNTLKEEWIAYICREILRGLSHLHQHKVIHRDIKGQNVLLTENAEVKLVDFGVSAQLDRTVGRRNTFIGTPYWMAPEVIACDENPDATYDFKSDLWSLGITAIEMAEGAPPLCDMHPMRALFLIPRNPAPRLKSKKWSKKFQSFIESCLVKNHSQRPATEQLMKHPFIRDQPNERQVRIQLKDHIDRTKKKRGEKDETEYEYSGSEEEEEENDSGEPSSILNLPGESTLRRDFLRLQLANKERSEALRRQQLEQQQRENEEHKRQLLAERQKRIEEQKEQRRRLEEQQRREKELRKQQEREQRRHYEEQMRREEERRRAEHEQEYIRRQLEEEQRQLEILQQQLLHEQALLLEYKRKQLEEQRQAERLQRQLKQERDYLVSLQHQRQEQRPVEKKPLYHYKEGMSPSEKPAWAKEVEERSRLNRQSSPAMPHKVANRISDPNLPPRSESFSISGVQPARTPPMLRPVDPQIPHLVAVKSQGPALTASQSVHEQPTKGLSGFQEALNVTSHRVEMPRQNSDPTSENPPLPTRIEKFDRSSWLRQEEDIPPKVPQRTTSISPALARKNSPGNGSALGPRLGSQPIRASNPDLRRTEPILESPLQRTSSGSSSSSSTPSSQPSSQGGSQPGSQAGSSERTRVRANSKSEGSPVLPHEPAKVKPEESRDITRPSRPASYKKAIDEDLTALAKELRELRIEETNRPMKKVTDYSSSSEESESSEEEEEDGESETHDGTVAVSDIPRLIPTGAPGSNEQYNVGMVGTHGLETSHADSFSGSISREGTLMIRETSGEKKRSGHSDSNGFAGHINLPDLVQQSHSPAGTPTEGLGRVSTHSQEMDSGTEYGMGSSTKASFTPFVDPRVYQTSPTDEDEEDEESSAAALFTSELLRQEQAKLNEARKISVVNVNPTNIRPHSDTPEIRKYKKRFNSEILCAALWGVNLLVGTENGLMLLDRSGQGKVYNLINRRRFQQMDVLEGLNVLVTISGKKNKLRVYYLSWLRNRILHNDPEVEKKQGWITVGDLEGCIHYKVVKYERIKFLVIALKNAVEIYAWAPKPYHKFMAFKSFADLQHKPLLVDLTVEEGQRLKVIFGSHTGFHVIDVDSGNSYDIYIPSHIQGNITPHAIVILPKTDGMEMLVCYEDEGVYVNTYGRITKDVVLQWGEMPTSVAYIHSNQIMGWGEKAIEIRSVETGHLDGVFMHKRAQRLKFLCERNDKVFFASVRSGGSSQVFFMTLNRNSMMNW

Consider `CCN(CC)C(=O)c1cnn2ccc(C3CCN(S(=O)(=O)c4ccc(NC(C)=O)cc4)CC3)cc12` [Compound Z271-0326, 5-(1-((4-acetamidophenyl)sulfonyl)piperidin-4-yl)-N,N-diethylpyrazolo[1,5-a]pyridine-3-carboxamide], for which the MAP4K5 kinase inhibition entry at MAP4K5 is on record as “only meaningfully inhibits LCK out of the three kinases”. Further, the “proliferation index (Ki67 staining)” value in series [1] (Z271-0326 25 mg/kg daily i.p., vs control group, FIG. 11E) is “decrease in proliferation index”. Besides, the tumor growth entry in series [1] (Z271-0326 25 mg/kg daily intraperitoneal, vs vehicle, FIGS. 11A-11C) is “significantly attenuated”. Also, the “increase in the percent of cells undergoing apoptosis compared to the control” value in the series with OE33 cells is recorded as “threefold”. For the same compound, the MTD at 4 weeks in series [2] is 25 mg/kg. The “recruitment of NACK to the Notch complex” value in series [3] is on record as “insensitive to inhibition”. In addition, the “inhibition of NACK binding to the Notch transcription complex” value in series [4] (293T cells transfected with N1ICD, Maml1, NACK, 2 hours treatment, FIG. 6A) is recorded as “dramatically inhibit NACK binding to the NOTCH transcription complex”. Moreover, the “recruitment of NACK to the Notch ternary complex” value in series [4] (WT NACK, FIG. 10D) is on record as “block recruitment of NACK to the Notch ternary complex”. Further, the “HC11 colony formation / viability” value in the series on HC11 cells is “but not HC11 cell; also recorded: insensitive”. Besides, at TNIK, the TNIK kinase inhibition result is “only meaningfully inhibits LCK out of the three kinases”.

Usually MTD stands for the largest dose that counted as tolerated. Low readings indicate poorer tolerability, high ones better tolerability.
